# PubChem BioAssay (NCI)
#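 Results reflect a 48-hour exposure of cells in 96-well plates to compound at five concentrations. TGI: total growth inhibition.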
# Columns and labels:
# Experiment in all cases: inhibition of tumour cell growth, NCI panel, 48 h
# SK-MEL-28 melanoma = test system: SK-MEL-28 melanoma
# SW-620 colon = test system: SW-620 colon
# M14 melanoma = test system: M14 melanoma
# CCRF-CEM leukemia = test system: CCRF-CEM leukemia
# DLD-1 colon = test system: DLD-1 colon
# OVCAR-4 ovarian = test system: OVCAR-4 ovarian
# OVCAR-3 ovarian = test system: OVCAR-3 ovarian
# HOP-18 NSCLC = test system: HOP-18 NSCLC
# HT29 colon = test system: HT29 colon
# EKVX NSCLC = test system: EKVX NSCLC
# NCI-H522 lung = test system: NCI-H522 lung
# SF-539 CNS = test system: SF-539 CNS
# LOX IMVI melanoma = test system: LOX IMVI melanoma
# ACHN renal = test system: ACHN renal
# NCI-H23 lung = test system: NCI-H23 lung
# COLO 205 colon = test system: COLO 205 colon
# K-562 leukemia = test system: K-562 leukemia
# MALME-3M melanoma = test system: MALME-3M melanoma
# HCC-2998 colon = test system: HCC-2998 colon
# NCI-H460 lung = test system: NCI-H460 lung
# DMS 114 small cell lung = test system: DMS 114 small cell lung
# SK-MEL-5 melanoma = test system: SK-MEL-5 melanoma
# RXF-631 renal = test system: RXF-631 renal
# SN12C renal = test system: SN12C renal
# DMS 273 small cell lung = test system: DMS 273 small cell lung
# OVCAR-8 ovarian = test system: OVCAR-8 ovarian
# SNB-19 CNS = test system: SNB-19 CNS
# LXFL 529 NSCLC = test system: LXFL 529 NSCLC
# HOP-62 NSCLC = test system: HOP-62 NSCLC
# CAKI-1 renal = test system: CAKI-1 renal
# UACC-62 melanoma = test system: UACC-62 melanoma
# HCT-15 colon = test system: HCT-15 colon
# HCT-116 colon = test system: HCT-116 colon
# SF-295 CNS = test system: SF-295 CNS
# A498 renal = test system: A498 renal
# 786-0 renal = test system: 786-0 renal
# HL-60(TB) leukemia = test system: HL-60(TB) leukemia
# SK-OV-3 ovarian = test system: SK-OV-3 ovarian
# SNB-78 CNS = test system: SNB-78 CNS
# KM12 colon = test system: KM12 colon
# M19-MEL melanoma = test system: M19-MEL melanoma
# MOLT-4 leukemia = test system: MOLT-4 leukemia
# OVCAR-5 ovarian = test system: OVCAR-5 ovarian
# SK-MEL-2 melanoma = test system: SK-MEL-2 melanoma
# A549 NSCLC = test system: A549 NSCLC
# IGROV1 ovarian = test system: IGROV1 ovarian
# XF 498 CNS = test system: XF 498 CNS
# KM20L2 colon = test system: KM20L2 colon
# UACC-257 melanoma = test system: UACC-257 melanoma
# UO-31 renal = test system: UO-31 renal
# TK-10 renal = test system: TK-10 renal
# SR leukemia = test system: SR leukemia
# NCI-H226 lung = test system: NCI-H226 lung
# RXF 393 renal = test system: RXF 393 renal
# SF-268 CNS = test system: SF-268 CNS
# SNB-75 CNS = test system: SNB-75 CNS
# RPMI-8226 leukemia = test system: RPMI-8226 leukemia
# U251 CNS = test system: U251 CNS
smiles,measurement,setting,value
CC(=O)Oc1ccc(O)c2c1CCCC2,TGI,SK-MEL-28 melanoma,> 100 µM
same,TGI,SW-620 colon,39.6 µM
same,TGI,M14 melanoma,> 68.2 µM
same,TGI,CCRF-CEM leukemia,47.6 µM
same,TGI,DLD-1 colon,48.5 µM
same,TGI,OVCAR-4 ovarian,33.2 µM
same,TGI,OVCAR-3 ovarian,25.9 µM
same,TGI,HOP-18 NSCLC,> 100 µM
same,TGI,HT29 colon,> 100 µM
same,TGI,EKVX NSCLC,> 100 µM
same,TGI,NCI-H522 lung,18.1 µM
same,TGI,SF-539 CNS,> 100 µM
same,TGI,LOX IMVI melanoma,36.3 µM
same,TGI,ACHN renal,29.2 µM
same,TGI,NCI-H23 lung,> 91.1 µM
same,TGI,COLO 205 colon,55.6 µM
same,TGI,K-562 leukemia,54.6 µM
same,TGI,MALME-3M melanoma,> 61.2 µM
same,TGI,HCC-2998 colon,> 100 µM
same,TGI,NCI-H460 lung,> 31.6 µM
same,TGI,DMS 114 small cell lung,> 54 µM
same,TGI,SK-MEL-5 melanoma,> 63.3 µM
same,TGI,RXF-631 renal,> 100 µM
same,TGI,SN12C renal,> 65.9 µM
same,TGI,DMS 273 small cell lung,> 64.1 µM
same,TGI,OVCAR-8 ovarian,32.9 µM
same,TGI,SNB-19 CNS,> 100 µM
same,TGI,LXFL 529 NSCLC,31.2 µM
same,TGI,HOP-62 NSCLC,> 100 µM
same,TGI,CAKI-1 renal,> 73.4 µM
same,TGI,UACC-62 melanoma,> 100 µM
same,TGI,HCT-15 colon,18.4 µM
same,TGI,HCT-116 colon,32.9 µM
same,TGI,SF-295 CNS,> 100 µM
same,TGI,A498 renal,> 31.6 µM
same,TGI,786-0 renal,> 100 µM
same,TGI,HL-60(TB) leukemia,14.1 µM
same,TGI,SK-OV-3 ovarian,> 100 µM
same,TGI,SNB-78 CNS,40.2 µM
same,TGI,KM12 colon,> 100 µM
same,TGI,M19-MEL melanoma,18.4 µM
same,TGI,MOLT-4 leukemia,43.5 µM
same,TGI,OVCAR-5 ovarian,> 100 µM
same,TGI,SK-MEL-2 melanoma,> 100 µM
same,TGI,A549 NSCLC,> 100 µM
same,TGI,IGROV1 ovarian,> 100 µM
same,TGI,XF 498 CNS,30 µM
same,TGI,KM20L2 colon,> 100 µM
same,TGI,UACC-257 melanoma,> 91.1 µM
same,TGI,UO-31 renal,> 64.5 µM
same,TGI,TK-10 renal,49.6 µM
same,TGI,SR leukemia,16.3 µM
same,TGI,NCI-H226 lung,> 100 µM
same,TGI,RXF 393 renal,> 57.5 µM
same,TGI,SF-268 CNS,> 100 µM
same,TGI,SNB-75 CNS,> 100 µM
same,TGI,RPMI-8226 leukemia,66.4 µM
same,TGI,U251 CNS,> 100 µM
